Laboratory results: patent publication US20200275624A1, “A METHOD FOR PRODUCING BANANA PLANTS WITH TOLERANCE TO FUSARIUM OXYSPORUM CUBENSIS TR4” (RAHAN MERISTEM (1998) LTD, priority 2017, published 2020)

Test system: banana meristems
Experiment: Micropropagation of banana meristems in media comprising a cytokinin-like substance
Type: cell-based
Details: meristematic tissue propagation; compared with other cytokinin-like substances; TDZ in the range of 0.1 ppm
From the text: In some embodiments, during the propagation stage, and typically before exposure to the demethylating agent, the meristematic tissues are propagated, at least in one propagating cycle, in a media comprising a cytokinin-like substance. Cytokinin like substances are known in the art, and non-limiting examples, include isopentenyl adenine (2iP), kinetin (KIN), 6-Benzyladenin (BA) and 6-Benzylaminopurine (BAP), 1-phenyl-3-(1,2,3-thiadiazol-5-yl) urea (TDZ).
The presence of TDZ in the culture media is in very low amounts, typically, in the range of 0.1 ppm. This amount is sufficient to induce the desired cell division.
On the 7th cycle of propagation 0.1 ppm Thidiazuron (TDZ) was added to the medium. In cycles 20 and 21, 30 μM 5-Aza-2-Deoxycytidine (a demethylation compound) was filter sterilized and added to the medium after solidification.

For O=C(Nc1ccccc1)Nc1cnns1 [TDZ, 1-phenyl-3-(1,2,3-thiadiazol-5-yl) urea], the rate of multiplication was “best rate of multiplication”.
